Results published in patent US11401246B2, “Triazole glycolate oxidase inhibitors” (CANTERO THERAPEUTICS, INC., priority 2018, dated 2022).

Target: T1, human glycolate oxidase (hGO) (Homo sapiens, UniProt Q9UJM8)
T1 construct: His-tag (6 histidines, pET-15b) (N); made in house; host or cells: E. coli BL21 (DE3)
T1 sequence (Q9UJM8 1-370): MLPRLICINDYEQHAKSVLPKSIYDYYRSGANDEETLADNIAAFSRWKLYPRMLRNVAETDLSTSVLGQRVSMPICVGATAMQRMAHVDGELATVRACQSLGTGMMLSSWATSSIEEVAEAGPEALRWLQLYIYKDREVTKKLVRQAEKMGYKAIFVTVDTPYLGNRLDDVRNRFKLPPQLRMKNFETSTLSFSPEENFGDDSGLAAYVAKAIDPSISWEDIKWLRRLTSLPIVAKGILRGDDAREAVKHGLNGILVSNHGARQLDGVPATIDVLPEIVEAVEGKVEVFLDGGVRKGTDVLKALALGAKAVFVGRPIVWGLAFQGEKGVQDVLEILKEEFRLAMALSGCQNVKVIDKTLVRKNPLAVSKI
Assay: In vitro inhibition of human glycolate oxidase (enzymatic assay, HRP-coupled Trinder reaction);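 note: values are IC50 potency bins despite the % Inhibition label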
Assay type: biochemical
Settings: recombinant hGO, 40 mM glycolic acid, pH 7, read at 515 nm, 1 minute after initiation of Trinder reaction; read-out: % Inhibition
Summary of the method: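 Recombinant N-terminal His-tagged human GO from E. coli, Ni-NTA purified. Activity with 40 mM glycolate in 50 mM KPO4, 0.1 mM EDTA, pH 7; H2O2 formed quantified by HRP Trinder reaction (4-aminoantipyrine, sulphonated DCIP) as quinoneimine absorbance, 1 minute after Trinder initiation.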

| SMILES | IC50 |
| --- | --- |
| O=C(O)c1nn[nH]c1Oc1ccc(-c2ccc(-c3cccnc3)cc2)cc1 [Example 120, 5-[4[4-(3-pyridyl)phenyl]phenoxy]-1H-1,2,3-triazole-4-carboxylic Acid] | 100 to 200 nM |
| O=C(O)c1nn[nH]c1Oc1ccc(-c2ccc(C3CC3)cc2)cc1 [Example 121, 5-((4′-cyclopropyl-[1,1′-biphenyl]-4-yl)oxy)-1H-1,2,3-triazole-4-carboxylic Acid] | < 100 nM |
| CC1(c2ccc(-c3ccc(Oc4[nH]nnc4C(=O)O)cc3)cc2)CC1 [Example 122, 5-((4′-(1-methylcyclopropyl)-[1,1′-biphenyl]-4-yl)oxy)-1H-1,2,3-triazole-4-carboxylic Acid] | 100 to 200 nM |
| O=C(O)c1nn[nH]c1Oc1ccc(-c2ccc(C3CC3(F)F)cc2)cc1 (stereo not drawn) [Example 123, 5-((4′-(2,2-difluorocyclopropyl)-[1,1′-biphenyl]-4-yl)oxy)-1H-1,2,3-triazole-4-carboxylic Acid] | 100 to 200 nM |
| O=C(O)c1nn[nH]c1Oc1ccc(C2CCC3(CC2)CC3(F)F)cc1 (stereo not drawn) [Example 126, 5-(4-(1,1-Difluorospiro[2.5]octan-6-yl)phenoxy)-1H-1,2,3-triazole-4-carboxylic acid] | > 200 nM |
| O=C(O)c1nn[nH]c1Oc1ccc(-c2ccc(C3CC(F)(F)C3)cc2)cc1 [Example 127, 5-((4′-(3,3-difluorocyclobutyl)-[1,1′-biphenyl]-4-yl)oxy)-1H-1,2,3-triazole-4-carboxylic Acid] | 100 to 200 nM |
| Cc1cc(-c2ccc(-c3ccc(Oc4[nH]nnc4C(=O)O)cc3)cc2)ccn1 [Example 129, 5˜((4′-(2-methylpyridin-4˜yl)-[1,1′-biphenyl]-4-yl)oxy)-1H-1,2,3-triazole-4-carboxylic Acid] | 100 to 200 nM |
| O=C(O)c1nn[nH]c1Oc1ccc(C2CC2(F)F)cc1 (stereo not drawn) [Example 130, 5-(4-(2,2-difluorocyclopropyl)phenoxy)-1H-1,2,3-triazole-4-carboxylic Acid] | > 200 nM |
| O=C(O)c1nn[nH]c1Oc1ccc(C2CCC(F)(F)C2)cc1 (stereo not drawn) [Example 131, 5-(4-(3,3-Difluorocyclopentyl)phenoxy)-1H-1,2,3-triazole-4-carboxylic Acid] | 100 to 200 nM |
